≈ marks a conversion by molar mass, not a printed value. Like-named read-outs stand apart in the source and are kept apart here.

Common to all, as to assay type: cell-based
Experiment [1] relates to Aureobasidium pullulans. The experiment is described as follows: MIC value generation: liquid culture assay on 24 well plates, solo ai. As to conditions: A. pullulans; for EC95: concentration for 95% activity estimated from graph; for MIC: Aureobasidium pullulans, rates 0-100 mg ai/l, mean values of n = 5, read-out: MIC Minimal inhibition concentration. The protocol:
(§1) Stachybotrys chartarum, and Aureobasidium pullulans were separately cultivated on PDA media to […] sporulation. Spore suspensions were produced for each fungi.
(§2) Test method used: liquid culture assay on 24 well plates.
(§3) For solo (i.e. single) ai testing the formulated fungicide (100 ul) was filled into the 24 well plates (8 different rates: 100-0.05 mg ai/l final volume as described above) and 100 ul distilled water was added. Afterwards 800 ul of 0.3% PDA media was added to the plate. The spore suspension of the specific fungi was added to this media in advance containing approx. 100.000 spores/ml. The 24 well plates were sealed and incubated at 24° C.
(§4) Dependent on the growth prosperities of each organisms, the evaluation was done after 3 to 6 days, when the surface of the check well was covered with mycelium. The evaluation was performed by assessing the growth of the fungi related to the check growth. The results are expressed as % activity relative to the check (values of 0-100% growth). Afterwards the results were converted in % growth inhibition. EC95 values and also MIC (minimal inhibition concentration) values were derived for each compound.
(§5) For each solo compound a graph was drawn of percentage inhibition against the concentration of the fungicide. From this graph the concentration of the fungicide required to achieve 95% activity was estimated. Also the concentration that gave the minimum inhibition concentration was derived as MIC value.

In experiment [2] the test system is Stachybotrys chartarum. The description is as above. As to conditions: S. chartarum; for EC95: concentration for 95% activity estimated from graph; for MIC: Stachybotrys chartarum, rates 0-100 mg ai/l, mean values of n = 5, read-out: MIC Minimal inhibition concentration. As to the method:
as §1, §2, §3, §4, §5

In experiment [3] the test system is Aureobasidium pullulans. As to the kind of experiment: Synergy testing of 2 way mixtures, liquid culture on 24 well plates (Colby). As to conditions: A. pullulans; for inhibition at 50 µg/mL: CDL 50 mg ai/l; for inhibition at 100 µg/mL: CDL 100 mg ai/l. As to the method: (§6) For synergism testing of the 2 way mixtures 100 ul of each fungicide were filled into the 24 well plates (8 different rates) and 800 ul of 0.3% PDA media containing the spore suspension was added (see above). Different ratios of the 2 fungicide rates were tested at the same time.
(§7) Stachybotrys chartarum and Aureobasidium pullulans were separately cultivated on PDA media to […] sporulation. Spore suspensions were produced for each fungi.
(§8) For the mixtures of different fungicides the synergism was calculated based on the Colby equation, which is described below: […]
(§9) The fungicidal action to be expected, We, for a given combination of two fungicides can be calculated as follows (see COLBY, S. R. “Calculating synergistic and antagonistic response of herbicide combinations”. Weeds 15, pages 20-22; 1967):
(§10) wherein: X=% activity in the case of treatment with the compound of formula I at rate x, in comparison with untreated control (=0%). Y=% activity in the case of treatment with a compound of formula II at rate y, in comparison with untreated control. We=expected activity (% activity in comparison with untreated control) after treatment with the compound of formula I and a compound of formula II at a rate of x+y kg of active ingredient.
(§11) If the activity actually observed is greater than the expected value We, there is a synergistic effect.
(§12) All rates below are expressed as mg ai/l (i.e. ppm).

Experiment [4] has as its system Stachybotrys chartarum. The experiment is described as above. To be noted: S. chartarum. The protocol: as §6, §7, §8, §9, §10, §11, §12
[5] abbreviates: PPZ 3.1 mg ai/l, read-out: inh % (PPZ alone).
Where [6] appears, read: CDL 12.5 mg ai/l, PPZ table, read-out: inh % (CDL alone).
Setting [7] is: CCZ table, read-out: inh % (CDL alone).
The mark [8] stands for this setting: DFZ table, read-out: inh % (CDL alone).
Where [9] appears, read: PPZ table, read-out: inh % (CDL alone).
The mark [10] stands for this setting: TBZ table, read-out: inh % (CDL alone).

Regarding `CCCC1COC(Cn2cncn2)(c2ccc(Cl)cc2Cl)O1` (stereo not drawn) [PPZ, Propiconazole], the results for the EC95 in the experiment with Aureobasidium pullulans [1] and in the experiment with Stachybotrys chartarum [2] were 36 mg ai/l and more than 100 mg ai/l, respectively. The MIC is 50 µg/mL (≈ 146 µM) in the experiment with Aureobasidium pullulans [1] and more than 100 µg/mL in the experiment with Stachybotrys chartarum [2]. Moreover, the values for the inhibition at 3.1 µg/mL in the experiment with Aureobasidium pullulans [3] (setting [5]) and with Stachybotrys chartarum [4] (setting [5]) were 70% and 10%, respectively. The inhibition at 12.5 µg/mL in the experiment on Aureobasidium pullulans [3] (PPZ 12.5 mg ai/l, read-out: inh % (PPZ alone)) came to 70%. Moreover, the inhibition at 0.2 µg/mL in the experiment on Stachybotrys chartarum [4] (PPZ 0.2 mg ai/l, read-out: inh % (PPZ alone)) was 0%. For the same molecule, the inhibition at 1.6 µg/mL in the experiment with Stachybotrys chartarum [4] (PPZ 1.6 mg ai/l, read-out: inh % (PPZ alone)) was determined as 0%.
For the molecule `CC(C1CC1)C(O)(Cn1cncn1)c1ccc(Cl)cc1` (stereo not drawn) [CCZ, Cyproconazole], the EC95 in the experiment with Aureobasidium pullulans [1] is recorded as 6.5 mg ai/l; in the experiment on Stachybotrys chartarum [2], more than 100 mg ai/l. Further, the MIC in the experiment with Aureobasidium pullulans [1] was 12.5 µg/mL (≈ 42.8 µM); in the experiment with Stachybotrys chartarum [2], more than 100 µg/mL. Further, in the experiment on Aureobasidium pullulans [3] (CCZ 1.6 mg ai/l, read-out: inh % (CCZ alone)), the inhibition at 1.6 µg/mL stood at 70%. Further, the inhibition at 3.1 µg/mL in the experiment with Aureobasidium pullulans [3] (CCZ 3.1 mg ai/l, read-out: inh % (CCZ alone)) came to 90%. In addition, the inhibition at 100 µg/mL with Stachybotrys chartarum [4] (CCZ 100 mg ai/l, read-out: inh % (CCZ alone)) was found to be 50%.
Consider `CC1COC(Cn2cncn2)(c2ccc(Oc3ccc(Cl)cc3)cc2Cl)O1` (stereo not drawn) [DFZ, Difenoconazole], for which the EC95 is recorded as 8 mg ai/l in the experiment on Aureobasidium pullulans [1] and 2.7 mg ai/l in the experiment with Stachybotrys chartarum [2]. The MIC in the experiment on Aureobasidium pullulans [1] was found to be 12.5 µg/mL (≈ 30.8 µM); with Stachybotrys chartarum [2], 3.1 µg/mL (≈ 7.63 µM). Moreover, in the experiment on Aureobasidium pullulans [3] (DFZ 0.8 mg ai/l, read-out: inh % (DFZ alone)), the inhibition at 0.8 µg/mL is 90%. In addition, the inhibition at 1.6 µg/mL with Aureobasidium pullulans [3] (DFZ 1.6 mg ai/l, read-out: inh % (DFZ alone)) stood at 90%. For the same molecule, in the experiment with Aureobasidium pullulans [3] (DFZ 3.1 mg ai/l, read-out: inh % (DFZ alone)), the inhibition at 3.1 µg/mL stood at 70%.
On to `c1ccc2[nH]c(-c3cscn3)nc2c1` [TBZ, Thiabendazole], for which, in the experiment with Aureobasidium pullulans [1], the EC95 is listed as 15 mg ai/l and the MIC turned out to be 50 µg/mL (≈ 248 µM). In the experiment on Stachybotrys chartarum [2], the EC95 was 46 mg ai/l and the MIC came to 50 µg/mL (≈ 248 µM). In addition, in the experiment with Aureobasidium pullulans [3] (TBZ 12.5 mg ai/l, read-out: inh % (TBZ alone)), the inhibition at 12.5 µg/mL was 90%.
Take `Cc1cc(C2CC2)nc(Nc2ccccc2)n1` [CDL, Cyprodinil]: the EC95 in the experiment with Aureobasidium pullulans [1] is recorded as more than 100 mg ai/l; in the experiment on Stachybotrys chartarum [2] it was 46 mg ai/l. Also, the figures for the MIC in the experiment with Aureobasidium pullulans [1] and in the experiment on Stachybotrys chartarum [2] were more than 100 µg/mL and 50 µg/mL (≈ 222 µM), respectively. Moreover, the inhibition at 0.8 µg/mL with Aureobasidium pullulans [3] (CDL 0.8 mg ai/l, DFZ table, read-out: inh % (CDL alone)) came to 0%. Further, the inhibition at 1.6 µg/mL with Aureobasidium pullulans [3] (CDL 1.6 mg ai/l, CCZ table, read-out: inh % (CDL alone)) worked out at 10%; in the experiment on Aureobasidium pullulans [3] (CDL 1.6 mg ai/l, DFZ table, read-out: inh % (CDL alone)) it was 10%; in the experiment with Aureobasidium pullulans [3] (CDL 1.6 mg ai/l, PPZ table, read-out: inh % (CDL alone)), 10%; with Aureobasidium pullulans [3] (CDL 1.6 mg ai/l, TBZ table, read-out: inh % (CDL alone)), 10%. Besides, the inhibition at 3.1 µg/mL stood at 10% with Aureobasidium pullulans [3] (CDL 3.1 mg ai/l, DFZ table, read-out: inh % (CDL alone)); 10% with Aureobasidium pullulans [3] (CDL 3.1 mg ai/l, PPZ table, read-out: inh % (CDL alone)); 10% in the experiment on Aureobasidium pullulans [3] (CDL 3.1 mg ai/l, TBZ table, read-out: inh % (CDL alone)); 0% with Stachybotrys chartarum [4] (CDL 3.1 mg ai/l, CCZ table, read-out: inh % (CDL alone)). Further, the inhibition at 12.5 µg/mL in the experiment with Aureobasidium pullulans [3] (CDL 12.5 mg ai/l, CCZ table, read-out: inh % (CDL alone)) was found to be 30%; in the experiment on Aureobasidium pullulans [3] (CDL 12.5 mg ai/l, DFZ table, read-out: inh % (CDL alone)), 30%; in the experiment with Aureobasidium pullulans [3] (setting [6]) it was 30%; in the experiment with Aureobasidium pullulans [3] (CDL 12.5 mg ai/l, TBZ table, read-out: inh % (CDL alone)) it was 30%; with Stachybotrys chartarum [4] (setting [6]), 70%. Further, the inhibition at 50 µg/mL in the experiment on Aureobasidium pullulans [3] (setting [7]) turned out to be 30%; in the experiment on Aureobasidium pullulans [3] (setting [8]), 30%; in the experiment with Aureobasidium pullulans [3] (setting [9]), 30%; with Aureobasidium pullulans [3] (setting [10]) it was 50%. Also, the inhibition at 100 µg/mL with Aureobasidium pullulans [3] (setting [7]) was determined as 30%; with Aureobasidium pullulans [3] (setting [8]) it was 30%; with Aureobasidium pullulans [3] (setting [9]), 30%; with Aureobasidium pullulans [3] (setting [10]) it was 50%.
